Test results from PubChem BioAssay (NCI).
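A five-concentration, 48-hour dose response in 96-well plates underlies each endpoint, interpolated linearly between surrounding concentrations. Definition used: TGI = concentration required for complete inhibition of growth.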

What was measured:
Experiment in all cases: DTP human tumour cell line panel, 48 h
CCRF-CEM leukemia = system: CCRF-CEM leukemia
EKVX NSCLC = system: EKVX NSCLC
HCC-2998 colon = system: HCC-2998 colon
HCT-15 colon = system: HCT-15 colon
HL-60(TB) leukemia = system: HL-60(TB) leukemia
K-562 leukemia = system: K-562 leukemia
LOX IMVI melanoma = system: LOX IMVI melanoma
NCI-H460 lung = system: NCI-H460 lung
NCI-H522 lung = system: NCI-H522 lung
NCI/ADR-RES ovarian = system: NCI/ADR-RES ovarian
OVCAR-5 ovarian = system: OVCAR-5 ovarian
OVCAR-8 ovarian = system: OVCAR-8 ovarian
SF-268 CNS = system: SF-268 CNS
SF-295 CNS = system: SF-295 CNS
SF-539 CNS = system: SF-539 CNS
SK-MEL-2 melanoma = system: SK-MEL-2 melanoma
SK-MEL-5 melanoma = system: SK-MEL-5 melanoma
SNB-19 CNS = system: SNB-19 CNS
786-0 renal = system: 786-0 renal

Measured: TGI

CCOC(=O)N1CCN(C(=O)Nc2cccc3ccccc23)CC1
not listed: 786-0 renal
> 10 µM: all other assays above

CSc1c(C(=O)Nc2ccc(Cl)cc2)c(N)[nH]c(=O)c1C#N
68.9 µM: SF-539 CNS
> 80 µM: EKVX NSCLC
64.3 µM: SK-MEL-5 melanoma
> 25.8 µM: LOX IMVI melanoma
> 89.2 µM: OVCAR-5 ovarian
32.2 µM: SK-MEL-2 melanoma
> 76.5 µM: NCI/ADR-RES ovarian
77.9 µM: 786-0 renal
51.7 µM: NCI-H522 lung
> 90.2 µM: HCC-2998 colon
> 88.7 µM: OVCAR-8 ovarian
83.6 µM: SF-295 CNS
> 100 µM: all other assays above

Cc1cc(C2(c3cc(C)c(O)c(C(=O)O)c3)OS(=O)(=O)c3ccccc32)cc(C(=O)O)c1O
not listed: CCRF-CEM leukemia | HCC-2998 colon
> 100 µM: all other assays above

COc1ccc(NCC(=O)Nn2c(C)nc3ccc(S(=O)(=O)Nc4ccc(OC)cc4)cc3c2=O)cc1
not listed: SK-MEL-5 melanoma
> 100 µM: all other assays above

CCOC(=O)COc1ccc(/C=C/C(=O)c2ccc(OC)cc2)cc1
41.5 µM: SF-539 CNS
77.3 µM: HCT-15 colon
54.3 µM: 786-0 renal
82.7 µM: SF-268 CNS
85.8 µM: SK-MEL-2 melanoma
39.4 µM: LOX IMVI melanoma
48.7 µM: HCC-2998 colon
73.6 µM: NCI-H522 lung
not listed: NCI-H460 lung | SK-MEL-5 melanoma
> 100 µM: all other assays above

CC(C)(C)OC(=O)CN1CCNCCN(CC(=O)OC(C)(C)C)CC1
86.1 µM: HL-60(TB) leukemia
not listed: SF-268 CNS
> 100 µM: all other assays above

O=C(O)C/C(=C\c1ccccc1)C(=O)O
93.5 µM: K-562 leukemia
> 100 µM: all other assays above

O=C1CCc2cc3c(cc21)CC1(Cc2ccccc2C1)C3
> 86.9 µM: OVCAR-5 ovarian
5.26 µM: HL-60(TB) leukemia
> 60.1 µM: NCI/ADR-RES ovarian
6.37 µM: SK-MEL-2 melanoma
> 87.1 µM: SF-295 CNS
5.38 µM: K-562 leukemia
> 70.5 µM: HCC-2998 colon
17.8 µM: SK-MEL-5 melanoma
> 79.9 µM: NCI-H522 lung
7.03 µM: CCRF-CEM leukemia
56.2 µM: SF-539 CNS
> 100 µM: all other assays above

O=C1C(=O)N(C2CCCCC2)C(=S)N1C1CCCCC1
> 100 µM: all assays above

CC1CC/C(=C\c2ccc(N(C)C)cc2)C(=O)/C1=C/c1ccc(N(C)C)cc1 (stereo unspecified)
not listed: HL-60(TB) leukemia | NCI-H460 lung | SF-268 CNS | SNB-19 CNS
> 100 µM: all other assays above

Cc1ccc(-c2n[nH]c(=O)[nH]2)cc1
> 100 µM: all assays above

CO[C@@H](c1ccccc1)[C@H](O)[C@](O)(c1ccccc1)P(=O)(OC)OC
> 100 µM: all assays above

CC1CC[C@@]2(OC1)OC1C[C@H]3[C@@H]4CC[C@H]5CC(OC6OC(CO)C(OC7OC(CO)C(O)C(O)C7O)C(O)C6O)CCC5(C)[C@H]4CCC3(C)C1[C@@H]2C (stereo partly specified)
15.3 µM: SK-MEL-2 melanoma
21.7 µM: CCRF-CEM leukemia
28.9 µM: HCT-15 colon
18.5 µM: HL-60(TB) leukemia
17.9 µM: SNB-19 CNS
17.2 µM: OVCAR-5 ovarian
16.4 µM: SF-295 CNS
42.6 µM: K-562 leukemia
12.2 µM: EKVX NSCLC
13.8 µM: NCI-H522 lung
15.6 µM: 786-0 renal
21.1 µM: NCI-H460 lung
12.3 µM: LOX IMVI melanoma
16.1 µM: SK-MEL-5 melanoma
16.3 µM: SF-539 CNS
12.9 µM: HCC-2998 colon
19.9 µM: NCI/ADR-RES ovarian
18.1 µM: SF-268 CNS
16.7 µM: OVCAR-8 ovarian
